Data taken from PubChem BioAssay AID686957 (The Scripps Research Institute Molecular Screening Center, 2013).
pIC50: −log10 of the molar value. The source made the active and inactive calls. The rule behind the calls is not given here.

The compounds below were run against T-cell receptor (TCR)-CD3 interaction, human (TCR alpha chain TRAV4) (assay: potency of TCR-CD3 interaction inhibitors, dose response, biochemical, fluorescence, TAMRA-labeled TCR probe (AID 686957)). Conditions: TCR-CD3 binding.

Row | SMILES | IC50 | pIC50
1 | O=C(NC(C(=O)N/N=C/c1cc([N+](=O)[O-])ccc1O)c1n[nH]c(=O)c2ccccc12)c1ccccc1 (centres undefined) | > 94.1 µM (inactive) | 
2 | O=C(NNC(=O)c1ccccc1F)c1cccc(-n2cccc2)c1 | > 94 µM (inactive) | 
3 | COc1cc(/C=N/NC(=O)COc2ccc(Cl)cc2)ccc1OS(=O)(=O)c1ccc(C)cc1 | inactive | 
4 | O=C(O)c1c[nH]c2c([N+](=O)[O-])cccc2c1=O | > 31.3 µM (inactive) | 
5 | CC(C)C(=O)Nc1ccc(C(=O)NNC(=S)NC(=O)c2ccccc2[N+](=O)[O-])cc1 | > 94.1 µM (inactive) | 
6 | Cc1ccc(O)c(-c2cc(C(=O)Nc3ccc(S(=O)(=O)Nc4nccc(C)n4)cc3)[nH]n2)c1 | > 94.1 µM (inactive) | 
7 | COc1cccc(C(=O)NNC(=O)c2ccc3ccccc3c2O)c1 | > 94.1 µM (inactive) | 
8 | Cc1[nH]n(-c2ccccc2)c(=O)c1N=Nc1ccccc1O | > 94.1 µM (inactive) | 
9 | O=C(NNC(=O)c1ccc2ccccc2c1O)c1cccs1 | > 94.1 µM (inactive) | 
10 | Cc1cc(C)c(-c2cc(NC(=O)COC(=O)c3ccc(NC(=O)CC#N)cc3)n(-c3ccccc3)n2)cc1C | > 94.1 µM (inactive) | 
11 | CCOc1ccc(Nc2ccc(N)c(S(=O)(=O)O)c2)cc1 | > 94.1 µM (inactive) | 
12 | CNC(=S)NNC(=O)c1cccn(Cc2ccc(Cl)cc2Cl)c1=O | > 94.1 µM (inactive) | 
13 | O=C(Cc1nnc(NC(=O)c2ccccc2)s1)N/N=C\c1ccc(O)c(O)c1 | > 94.1 µM (inactive) | 
14 | O=C(O)CC(CCc1ccccc1)OC1OC(CO)C(O)C(O)C1O (centres undefined) | > 94.1 µM (inactive) | 
15 | O=C(N/N=C/c1cccnc1)c1cc(O)c(O)c(O)c1 | > 94 µM (inactive) | 
16 | NNC(=O)c1nc[nH]c1C(=O)Nc1ccccn1 | > 94.2 µM (inactive) | 
17 | CCCCCC(=O)NC(=S)NC1C2CC3CC(C2)CC1C3 (centres undefined) | > 94.1 µM (inactive) | 
18 | O=C(N/N=C/c1ccc(F)cc1)c1cc(-c2ccco2)nc2ccccc12 | > 94.1 µM (inactive) | 
19 | COc1ccc(C(=O)Nc2nnc(CC(=O)N/N=C/c3ccc(O)cc3O)s2)cc1 | > 94.1 µM (inactive) | 
20 | O=C(N/N=C/c1cc(Br)ccc1O)c1cccc(N2CCCC2=O)c1 | > 94.1 µM (inactive) | 
21 | O=C(N/N=C/c1cc(Cl)cc([N+](=O)[O-])c1O)c1ccc2c(c1)OCO2 | > 94.1 µM (inactive) | 
22 | Oc1ccc(/C=N/Nc2ncnc3c2ncn3Cc2ccccc2)cc1O | > 94.1 µM (inactive) | 
23 | Cc1cccc(-n2c(O)c(/C=N/NC(=O)c3ccccc3Cl)c3ccccc3c2=O)n1 | > 94.1 µM (inactive) | 

Row | SMILES | IC50 | pIC50
24 | O=C1NC(=S)NC1=Cc1ccco1 | > 94.1 µM (inactive) | 
25 | O=C(NNC(=S)NC(=O)c1cccnc1)c1ccc(F)cc1 | > 94.1 µM (inactive) | 
26 | COc1ccccc1C(=O)NNC(=O)c1ccc2ccccc2c1O | > 94.2 µM (inactive) | 
27 | O=[N+]([O-])c1cc(Br)c(O)c(/C=N/Nc2nnnn2-c2cccc3ccccc23)c1 | > 94.1 µM (inactive) | 
28 | CNC(=S)NNC(=O)c1cccn(Cc2cccc(Cl)c2)c1=O | > 94.1 µM (inactive) | 
29 | Cc1nc2ccccc2c(=O)n1/N=C/c1cc(Br)cc(Br)c1O | > 94.1 µM (inactive) | 
30 | O=c1c(O)cccc2cc(O)c(O)c(O)c12 |  | 5.36
31 | O=Nc1[nH]c(=O)c(/C=C(\O)c2ccccc2)nc1NO | > 94.2 µM (inactive) | 
32 | CC/C(=N\NC(=O)c1ccccc1O)c1c(O)n(Cc2ccccc2)c(=O)[nH]c1=O | > 94.1 µM (inactive) | 
33 | O=C1NC(=S)S/C1=C\C=C\c1ccc([N+](=O)[O-])o1 | > 94.1 µM (inactive) | 
34 | O=C(N/N=C/c1c(O)n(Cc2ccco2)c(=O)[nH]c1=O)c1ccccc1O | > 94 µM (inactive) | 
35 | Cc1ccc(OCC(=O)c2c(N)n(C)c(=O)n(C)c2=O)c([N+](=O)[O-])n1 | inactive | 
36 | Cc1nc(S/C(=C/c2ccc(-c3ccc(C(=O)O)cc3)o2)C(=O)O)n[nH]1 | > 94.2 µM (inactive) | 
37 | CN(C(=O)COC(=O)c1cc(-c2ccco2)nc2ccccc12)C1CCS(=O)(=O)C1 (centres undefined) | inactive | 
38 | CNC(=S)NNC(=O)c1cccn(Cc2cccc(C(F)(F)F)c2)c1=O | > 94.1 µM (inactive) | 
39 | COc1cccc(OCC(=O)NNC(=O)c2ccc3ccccc3c2O)c1 | > 94.1 µM (inactive) | 
40 | Cc1c(CC(=O)N2CCN(C(=O)C3COc4ccccc4O3)CC2)c(=O)oc2c(O)c(O)ccc12 (centres undefined) |  | 5.22
41 | COc1ccc(NC(=O)NNC(=O)c2ccc3ccccc3c2O)cc1OC | > 94.1 µM (inactive) | 
42 | O=C(NNC(=O)c1cc2ccccc2cc1O)Nc1ccc(F)cc1F | > 94.1 µM (inactive) | 
43 | Cn1c(O)c(/C=N/NC(=O)c2cc3ccccc3cc2O)c2ccccc21 | > 94.1 µM (inactive) | 
44 | COC(=O)Nc1ccc(S(=O)(=O)NNC(=O)c2c(O)c3ccccc3n(C)c2=O)cc1 | > 94.1 µM (inactive) | 
45 | Cc1ccc(S(=O)(=O)N2CCC(C(=O)NNC(=O)c3ccccc3O)CC2)cc1 | > 94.1 µM (inactive) | 
46 | O=C(CSc1nc2ccccc2c(=O)n1-c1ccc(F)c(Cl)c1)Nc1cccc(S(=O)(=O)N2CCOCC2)c1 | > 10.5 µM (inactive) | 

Row | SMILES | IC50 | pIC50
47 | Cc1ccc(NC(=O)NNC(=O)c2cc3ccccc3cc2O)cc1 | > 94.1 µM (inactive) | 
48 | C/C(=N\NC(=O)c1nnn(-c2nonc2N)c1CN(C)c1ccccc1)c1ccccc1O | > 94.1 µM (inactive) | 
49 | CC(=O)NNC(=S)NC(=O)c1ccc(C)cc1 | > 94 µM (inactive) | 
50 | O=C(NNC(=S)NC1CCCCC1)c1ccccc1O | > 94.1 µM (inactive) | 
51 | C=CCNC(=S)NNC(=O)c1cccn(Cc2cccc(Cl)c2)c1=O | > 94.1 µM (inactive) | 
52 | COc1cc(OC)cc(C(=O)N/N=C/c2ccc(OC)c(COc3ccc4ccccc4c3)c2)c1 | > 94.1 µM (inactive) | 
53 | Cc1c(C(=O)NNC(=O)c2ccccc2O)oc2ccccc12 | > 94 µM (inactive) | 
54 | Cc1ccc(/C=C2\SC(=S)N(CCC(=O)NNC(=O)c3ccccc3O)C2=O)cc1 | > 94.1 µM (inactive) | 
55 | Cc1c(NC(=S)N/N=C/c2cc([N+](=O)[O-])ccc2O)c(=O)n(-c2ccccc2)n1C | > 94.1 µM (inactive) | 
56 | Cc1ccc(-c2[nH]c3cc(C(=O)NCCCn4ccnc4)ccc3c(=O)c2O)cc1 | inactive | 
57 | O=C1C=C(NCCc2cc(Br)c(O)c(Br)c2)C(=O)c2ncccc21 | inactive | 
58 | Oc1ccc(C[C@H]2NCCc3cc(O)c(O)cc32)cc1O | > 94.1 µM (inactive) | 
59 | CCC1=NN(C(=O)c2cccc([N+](=O)[O-])c2)C(O)(c2ccc(C)cc2)C1 (centres undefined) | > 94.1 µM (inactive) | 
60 | COC(=O)c1cc(O)c(O)c(O)c1 | > 94.3 µM (inactive) | 
61 | CNC(=S)N/N=C/c1cc(Br)cc(Br)c1O | > 94.1 µM (inactive) | 
62 | O=C(N/N=C/c1cn(Cc2cccc(F)c2)c2ccccc12)c1cc(O)cc(O)c1 | > 94.1 µM (inactive) | 
63 | Cc1cc([N+](=O)[O-])cc(/C=N/n2c(C)nc3ccccc3c2=O)c1O | > 94 µM (inactive) | 
64 | O=C(NNC(=O)c1ccc2ccccc2c1O)Nc1ccc(F)cc1 | > 94.1 µM (inactive) | 
65 | O=c1c(CO)cc(CO)cc(CO)c1O | inactive | 
66 | O=C(CNC(=O)c1cccc(Br)c1)N/N=C/c1cc(Br)cc(Br)c1O | > 94.1 µM (inactive) | 
67 | O=C(CCN1C(=O)/C(=C\c2ccccc2)SC1=S)NNC(=O)c1ccccc1O | > 94.1 µM (inactive) | 
68 | O=C(NNC(=O)c1ccc2ccccc2c1O)NC1CCCCC1 | > 94.1 µM (inactive) | 
69 | C/C(=N\NC(=O)c1c(C)nc2ccccn12)c1ccc(O)cc1O | > 94.1 µM (inactive) | 
